This note sets out measurements from patent US5354862A, “Preparation and the use of halopropargylated cyclic quaternary ammonium compounds as antimicrobial agents” (Rohm and Haas Company, priority 1993, dated 1994).

Each structure is given as a SMILES string. Where two headings read alike, the source gives them in different places. Bounds are passed on as bounds.

Assay in all cases: Broth two-fold serial dilution MIC test
Test [1] relates to Pseudomonas aeruginosa. The format is cell-based, Pseudomonas aeruginosa (ATCC 15442). As to conditions: Psae. The text has this:
(§1) A minimum inhibitory concentration (MIC) value is obtained using a broth, two-fold serial dilution test performed as follows: A stock solution or dispersion of the test compound, typically at a concentration of 1%, is made in a 5:3:2 solvent solution of acetone. methanol, and water. A volume of the stock solution is dispensed into culture media to give an initial starting test concentration of 500 ppm compound.
(§2) When the test is ready to be done, each vessel in the dilution series, except the first vessel, contains an equal volume of compound free broth. The first vessel contains twice the volume of broth with the starting concentration of test compound. One half of the broth from the first vessel is transferred to the second vessel- After being mixed, one half the resulting volume is removed from the second vessel and transferred to the third vessel. The entire cycle is repeated sufficiently to give a series of concentrations amounting to 500, 250, 125, 63, 31, 16, 8, and 4, 2, 1, 0.5, 0.25 ppm respectively.
(§3) Each vessel is then inoculated with a cell suspension of the appropriate test organism. Bacteria are grown in broth, fungi on agar slants for a time and at a temperature appropriate to the species being tested, and algae are a mixture of green algae and blue-green bacteria grown in a nutrient media. At the end of the growth period, in the case of bacteria, the broth is vortexed to disperse the cells.
(§4) In the case of fungi, the spores are harvested by pipetting water onto the slant and dislodging the spores with a sterile loop. The cell/spore suspension is standardized by controlling incubation time, temperature, and the volume of the diluent. The suspension is then used to inoculate the vessels containing the broth compound.
(§5) The vessels are then incubated at the appropriate temperature. After the incubation, the vessels are examined for growth/no growth. The minimum inhibitory concentration (MIC) is defined as the lowest concentration of compound that results in complete inhibition of growth of the test organism.
1. Pseudomonas aeruginosa

In test [2] the test system is Escherichia coli. The format is cell-based, Escherichia coli (ATCC 11229). As to conditions: Ecol.
Description: as §1, §2, §3, §4, §5

Test [3] deals with Staphylococcus aureus. Type of test: cell-based, Staphylococcus aureus (ATCC 6538). As to conditions: Saur.
Description: as §1, §2, §3, §4, §5
2. Staphylococcus aureus

Test [4] deals with Aspergillus niger. Type of test: cell-based, Aspergillus niger (ATCC 6275). As to conditions: Anig, TSB media.
Description: as §1, §2, §3, §4, §5
4. Aspergillus niger 6275 Anig

Setting [5] is: Pseudomonas aeruginosa, Table 2, M9G media, read-out: MIC.
Setting [6] is: Pseudomonas aeruginosa, Table 2, TSB media, read-out: MIC.
Setting [7] is: Escherichia coli, Table 2, M9G media, read-out: MIC.
The mark [8] stands for this setting: Staphylococcus aureus, Table 2, M9G media, read-out: MIC.
[9] abbreviates: Staphylococcus aureus, Table 2, TSB media, read-out: MIC.
[10] abbreviates: Escherichia coli, Table 2, TSB media, read-out: MIC.
Where [11] appears, read: Aspergillus niger, Table 2, read-out: MIC.

For the compound `CCCCCCCCCCCCCC[N+]1(CC#CI)CCCC1` [Compound 34, 1-tetradecyl-1-(3-iodopropargyl)-pyrrolidinium benzenesulfonate], the MIC in test [1] (Table 2, M9G media) was determined as 2 ppm; in test [1] (Table 2, TSB media), 2 ppm; in test [1] (Table 3 comparison, M9G media) it was 2 ppm; in test [1] (Table 3 comparison, TSB media) it was 2 ppm; in test [2] (Table 2, M9G media) it was 0.25 ppm; in test [2] (Table 2, TSB media), 0.25 ppm. Moreover, the MIC is given as 0.25 ppm in test [2] (Table 3 comparison, M9G media); 0.25 ppm in test [2] (Table 3 comparison, TSB media); < 0.25 ppm in test [3] (Table 2, M9G media); < 0.25 ppm in test [3] (Table 2, TSB media); < 0.25 ppm in test [3] (Table 3 comparison, M9G media); < 0.25 ppm in test [3] (Table 3 comparison, TSB media). Moreover, the MIC in test [4] (Table 2) and in test [4] (Table 3 comparison) was 0.25 ppm each time.
For `CCCCCCCCCCCCCCCC[N+]1(CC#CI)CCCC1` [Compound 35, 1-hexadecyl-1-(3-iodopropargyl)-pyrrolidinium methanesulfonate], the MIC in test [1] (Table 2, M9G media) is recorded as > 500 ppm; in test [1] (Table 2, TSB media), > 500 ppm; in test [2] (Table 2, M9G media) it was 4 ppm; in test [2] (Table 2, TSB media), 63 ppm; in test [3] (Table 2, M9G media), 0.5 ppm; in test [3] (Table 2, TSB media), 0.25 ppm. The MIC in test [4] (Table 2) is 4 ppm.
Take `CCCCCCCCCCCCC[N+]1(CC#CI)CCCC1` [Compound 36, 1-tridecyl-1-(3-iodopropargyl)-pyrrolidinium methanesulfonate]: the MIC is given as 32 ppm in test [1] (Table 2, M9G media); 63 ppm in test [1] (Table 2, TSB media); 2 ppm in test [2] (Table 2, M9G media); 8 ppm in test [2] (Table 2, TSB media); < 0.25 ppm in test [3] (Table 2, M9G media); < 0.25 ppm in test [3] (Table 2, TSB media). Moreover, in test [4] (Table 2), the MIC stood at 1 ppm.
As to `CCCCCCCCCCCC[N+]1(CC#CI)CCCC1` [Compound 37, 1-dodecyl-1-(3-iodopropargyl)-pyrrolidinium methanesulfonate], the MIC turned out to be 63 ppm in test [1] (Table 2, M9G media); 125 ppm in test [1] (Table 2, TSB media); 2 ppm in test [2] (Table 2, M9G media); 16 ppm in test [2] (Table 2, TSB media); 0.5 ppm in test [3] (Table 2, M9G media); 0.5 ppm in test [3] (Table 2, TSB media). Moreover, in test [4] (Table 2), the MIC was 0.25 ppm.
On to `CCCCCCCCCCCCCCC[N+]1(CC#CI)CCCC1` [Compound 38, 1-pentadecyl-1-(3-iodopropargyl)-pyrrolidinium methanesulfonate], for which the MIC in test [1] (Table 2, M9G media) is on record as 32 ppm; in test [1] (Table 2, TSB media), 63 ppm; in test [2] (Table 2, M9G media), 1 ppm; in test [2] (Table 2, TSB media), 8 ppm; in test [3] (Table 2, M9G media) it was < 0.25 ppm; in test [3] (Table 2, TSB media), < 0.25 ppm. The MIC in test [4] (Table 2) is reported as 0.5 ppm.
On to `CCCCCCCCCCCCCC[N+]1(CC#CI)CCCC1` [Compound 39, 1-tetradecyl-1-(3-iodopropargyl)-pyrrolidinium methanesulfonate], for which the MIC in test [1] (Table 2, M9G media) was 63 ppm; in test [1] (Table 2, TSB media), 63 ppm; in test [2] (Table 2, M9G media), 1 ppm; in test [2] (Table 2, TSB media) it was 2 ppm; in test [3] (Table 2, M9G media) it was < 0.25 ppm; in test [3] (Table 2, TSB media) it was < 0.25 ppm. This compound registered an MIC in test [4] (Table 2) of 0.5 ppm.
On to `CCCCCCCCCCCCCCCC[N+]1(CC#CI)CCOCC1` [Compound 40, 1-hexadecyl-1-(3-iodopropargyt)-morpholinium methanesulfonate], for which the MIC in test [1] (setting [5]) was 4 µg/mL; in test [1] (setting [6]), 4 µg/mL; in test [2] (setting [7]) it was 0.5 µg/mL; in test [2] (Table 2, TSB media), < 0.25 ppm; in test [3] (setting [8]) it was < 0.25 µg/mL; in test [3] (setting [9]) it was 0.5 µg/mL. Moreover, the MIC in test [4] (Table 2) is listed as < 0.25 ppm.
Consider `CCCCCCCCCCCCCC[N+]1(CC#CI)CC(C)OC(C)C1` (stereo not shown) [Compound 43, 4-tetradecyl-4-(3-iodopropargyl)-2,6-dimethylmorpholinium 4-methylbenzenesulfonate], for which the MIC in test [1] (setting [5]) was 2 µg/mL; in test [1] (setting [6]), 4 µg/mL; in test [2] (setting [7]) it was < 0.25 µg/mL; in test [2] (setting [10]), 0.5 µg/mL; in test [3] (setting [8]), < 0.25 µg/mL; in test [3] (setting [9]), 0.5 µg/mL. Moreover, the MIC in test [4] (setting [11]) was 1 µg/mL.
On to `CCCCCCCCCCCCCCCC[N+]1(CC#CI)CCCCCC1` [Compound 44, 1-hexadecyl-1-(3-iodopropargyl)-hexamethyleneiminium 4-methylbenzenesulfonate], for which the MIC worked out at 8 µg/mL in test [1] (setting [5]); 8 µg/mL in test [1] (setting [6]); 8 µg/mL in test [2] (setting [7]); 16 µg/mL in test [2] (setting [10]); 8 µg/mL in test [3] (setting [8]); 4 µg/mL in test [3] (setting [9]). In test [4] (setting [11]), the MIC turned out to be 8 µg/mL.
Regarding `CCCCCCCCCCCCCC[N+]1(CC#CI)CCCCCC1` [Compound 45, 1-tetradecyl-1-(3-iodopropargyl)-hexamethyleneiminium 4-methylbenzenesulfonate], the MIC in test [1] (setting [5]) is 4 µg/mL; in test [1] (setting [6]), 4 µg/mL; in test [2] (setting [7]), < 0.25 µg/mL; in test [2] (setting [10]) it was < 0.25 µg/mL; in test [3] (setting [8]), < 0.25 µg/mL; in test [3] (setting [9]), < 0.25 µg/mL. Besides, the MIC in test [4] (setting [11]) was determined as 1 µg/mL.
Take `CCCCCCCCCCCCCCCC[N+]1(CC#CI)CC(C)OC(C)C1` (stereo not shown) [Compound 46, 4-hexadecyl-4-(3-iodopropargyl)-2,6-dimethylmorpholinium 4-methylbenzenesulfonate]: the MIC in test [1] (setting [5]) was 16 µg/mL; in test [1] (setting [6]), 16 µg/mL; in test [2] (Table 2, M9G media), 8 ppm; in test [2] (Table 2, TSB media), 8 ppm; in test [3] (setting [8]), < 0.25 µg/mL; in test [3] (setting [9]) it was < 0.25 µg/mL. In addition, the MIC in test [4] (Table 2) turned out to be 2 ppm.
On to `CCCCCCCCCCCCCCCC[N+]1(CC#CI)CC(C)OC(C)C1` (stereo not shown) [Compound 47, 4-hexadecyl-4-(3-iodopropargyl)-2,6-dimethylmorpholinium benzenesulfonate], for which the MIC was 8 ppm in test [1] (Table 2, M9G media); 8 ppm in test [1] (Table 2, TSB media); 2 ppm in test [2] (Table 2, M9G media); 2 ppm in test [2] (Table 2, TSB media); < 0.25 ppm in test [3] (Table 2, M9G media); < 0.25 ppm in test [3] (Table 2, TSB media). The compound further showed an MIC in test [4] (Table 2) of 0.5 ppm.
As for `CCCCCCCCCCCCCCCC[N+]1(CC#CI)CC(C)OC(C)C1` (stereo not shown) [Compound 48, 4-hexadecyl-4-(3-iodopropargyl)-2,6-dimethylmorpholinium methanesulfonate], the MIC in test [1] (Table 2, M9G media) is listed as 8 ppm; in test [1] (Table 2, TSB media) it was 8 ppm; in test [2] (Table 2, M9G media), 2 ppm; in test [3] (Table 2, M9G media), < 0.25 ppm; in test [3] (Table 2, TSB media), 0.5 ppm; in test [4] (Table 2), 1 ppm.
As for `CCCCCCCCCCCCCCCC[N+]1(CC#CI)CCOCC1` [Compound 49, 4-hexadecyl-4-(3-iodopropargyl)-morpholinium 4-methylbenzenesulfonate], the MIC in test [1] (Table 2, M9G media) is on record as 8 ppm; in test [1] (Table 2, TSB media), 8 ppm; in test [2] (Table 2, M9G media), 1 ppm; in test [2] (Table 2, TSB media), 2 ppm; in test [3] (Table 2, M9G media), < 0.25 ppm; in test [3] (Table 2, TSB media) it was 0.5 ppm. This compound also showed an MIC in test [4] (Table 2) of 1 ppm.
With `CCCCCCCCCCCCCCCC[N+]1(CC#CI)CCOCC1` [Compound 50, 4-hexadecyl-4-(3-iodopropargyl)-morpholinium benzenesulfonate], the MIC is reported as 8 ppm in test [1] (Table 2, M9G media); 8 ppm in test [1] (Table 2, TSB media); 1 ppm in test [2] (Table 2, M9G media); 1 ppm in test [2] (Table 2, TSB media); < 0.25 ppm in test [3] (Table 2, M9G media); 0.5 ppm in test [3] (Table 2, TSB media). Also, the MIC in test [4] (Table 2) was 0.5 ppm.
`CCCCCCCCCCCCCC[N+]1(CC#CI)CCCCC1C` (stereo not shown) [Compound 51, 1-(tetradecyl)-1-(3-iodopropargyl)-2-methylpiperidinium benzenesulfonate]: the MIC in test [1] (Table 2, M9G media) is 16 ppm; in test [1] (Table 2, TSB media) it was 16 ppm; in test [2] (setting [7]) it was 4 µg/mL; in test [2] (Table 2, TSB media), 2 ppm; in test [3] (Table 2, M9G media), < 0.25 ppm; in test [3] (Table 2, TSB media), < 0.25 ppm. The MIC in test [4] (setting [11]) came out at 0.5 µg/mL.
